Assay results reported in patent publication US11091478B2 (Fochon Pharmaceuticals, Ltd., priority 2017, dated 2021).

What was measured:
DOHH2 cells = assay: Cell proliferation assay (MTS), DOHH2 cells, 120 h; format: cell-based; conditions: Homo sapiens, DOHH-2, 120 h
Outline: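 RS4;11 and DOHH2 cells at 5000 cells/well in RPMI-1640 with 10% FBS were treated with compound at 1.5–10000 nM final, nine points, at 37 °C, 5% CO2. Exposure was 72 h for RS4;11 and 120 h for DOHH2. MTS was added for 2 h, absorbance read at 490/650 nm, and IC50 calculated.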

RS4;11 cells = assay: Cell proliferation assay (MTS), RS4;11 cells, 72 h; format: cell-based; conditions: Homo sapiens, RS4-11, 72 h
Source text: Cell Proliferation Assays
MTS testing kit was purchased from Promega. The RPMI-1640, Fetal bovine serum and Penicillin-Streptomycin were purchased from Gibco. Dimethyl sulfoxide (DMSO) was purchased from Sigma.
To investigate whether a compound is able to inhibit the activity of BCL-2 in cells, a mechanism-based assay using DOHH2 (DSMZ No.® ACC 47) and RS4;11 (ATCC® CRL-1873™) cell was developed. In this assay, inhibition of Bcl-2 was detected by the inhibition of DOHH2 cells proliferation. DOHH2 cells were cultured in culture flasks to 40-80% confluence in RPMI-1640 plus 10% fetal bovine serum. Cells were collected and plated onto 96-well plates at desired cell density (5000 cells/well). Plates were incubated overnight at 37° C., with 5% CO2 to adhere. Compounds were added to the plates, and the final compound concentrations were 10000, 3333, 1111, […], 124, 41, 14, 4.6 and 1.5 nM. Plates plated with DOHH2 or RS4;11 cells were placed at 37° C., with 5% CO2 for 120 h (DOHH2) or 72 h (RS4;11) respectively. 20 μl MTS/100 μl medium mixture solution were added to each well and incubate the plates for exactly 2 hours. The reaction was stopped by adding 25 μl 10% SDS per well. Measure absorbance at 490 nm and 650 nm (reference wavelength). IC50 was calculated using GraphPad Prism 5.0.
Select compounds prepared as described above were assayed according to the biological procedures described herein.

Compound	IC50 (RS4;11 cells) [nM]	IC50 (DOHH2 cells) [nM]
CC1(C)CCC(CN2CCN(c3ccc(C(=O)NS(=O)(=O)c4cc5c(c([N+](=O)[O-])c4)N[C@H](CN4C[C@@H]6C[C@H]4CO6)CO5)c(Oc4cnc5[nH]ccc5c4)c3)CC2)=C(c2ccc(Cl)cc2)C1 [Example 2-82, 2-((1H-pyrrolo[2,3-b]pyridin-5-yl)oxy)-N-(((R)-3-(((1S,4S)-2-oxa-5-azabicyclo[2.2.1]heptan-5-yl)methyl)-5-nitro-3,4-dihydro-2H-benzo[b][1,4]oxazin-7-yl)sulfonyl)-4-(4-((4′-chloro-5,5-dimethyl-3,4,5,6-tetrahydro-[1,1′-biphenyl]-2-yl)methyl)piperazin-1-yl) benzamide]	1	9
CC1(C)CCC(CN2CCN(c3ccc(C(=O)NS(=O)(=O)c4cc5c(c([N+](=O)[O-])c4)N[C@@H](CN4CCOCC4)CO5)c(Oc4cnc5[nH]ccc5c4)c3)CC2)=C(c2ccc(Cl)cc2)C1 [Example 2-18, (S)-2-((1H-pyrrolo[2,3-b]pyridin-5-yl)oxy)-4-(4-((4′-chloro-5,5-dimethyl-3,4,5,6-tetra-hydro-[1,1′-biphenyl]-2-yl)methyl)piperazin-1-yl)-N-((3-(morpholinomethyl)-5-nitro-3,4-dihydro-2H-benzo[b][1,4]oxazin-7-yl)sulfonyl)benzamide]	4	9
CN(C)CC[C@H]1COc2cc(S(=O)(=O)NC(=O)c3ccc(N4CCN(CC5=C(c6ccc(Cl)cc6)CC(C)(C)CC5)CC4)cc3Oc3cnc4[nH]ccc4c3)cc([N+](=O)[O-])c2N1 [Example 2-12, (S)-2-((1H-pyrrolo[2,3-b]pyridin-5-yl)oxy)-4-(4-((4′-chloro-5,5-dimethyl-3,4,5,6-tetra-hydro-[1,1′-biphenyl]-2-yl)methyl)piperazin-1-yl)-N-((3-(2-(dimethylamino)ethyl)-5-nitro-3,4-dihydro-2H-benzo[b][1,4]oxazin-7-yl)sulfonyl)benzamide]	1	19
CC1(C)CCC(CN2CCN(c3ccc(C(=O)NS(=O)(=O)c4cc5c(c([N+](=O)[O-])c4)N[C@H](CO)C5)c(Oc4cnc5[nH]ccc5c4)c3)CC2)=C(c2ccc(Cl)cc2)C1 [Example 1-6, (S)-2-((1H-pyrrolo[2,3-b]pyridin-5-yl)oxy)-4-(4-((4′-chloro-5,5-dimethyl-3,4,5,6-tetra-hydro-[1,1′-biphenyl]-2-yl)methyl)piperazin-1-yl)-N-((2-(hydroxymethyl)-7-nitroindolin-5-yl)sulfonyl)benzamide]		221
CC1(C)CCC(CN2CCN(c3ccc(C(=O)NS(=O)(=O)c4cc5c(c([N+](=O)[O-])c4)N[C@@H](C4CC4)CO5)c(-n4ncc5nc6[nH]ccc6cc54)c3)CC2)=C(c2ccc(Cl)cc2)C1 [Example 6-2, (S)-4-(4-((4′-chloro-5,5-dimethyl-3,4,5,6-tetrahydro-[1,1′-biphenyl]-2-yl)methyl)piperazin-1-yl)-N-((3-cyclopropyl-5-nitro-3,4-dihydro-2H-benzo[b][1,4]oxazin-7-yl)sulfonyl)-2-(pyrazolo[4,3-b]pyrrolo[3,2-e]pyridin-1(5H)-yl)benzamide]		264
CC1(C)CCC(CN2CCN(c3ccc(C(=O)NS(=O)(=O)c4cc5c(c([N+](=O)[O-])c4)N[C@@H](CNS(=O)(=O)N4CCOCC4)CO5)c(Oc4cnc5[nH]ccc5c4)c3)CC2)=C(c2ccc(Cl)cc2)C1 [Example 2-67, (S)-2-((1H-pyrrolo[2,3-b]pyriidn-5-yl)oxy)-4-(4-((4′-chloro-5,5-dimethyl-3,4,5,6-tetra-hydro-[1,1′-biphenyl]-2-yl)methyl)piperazin-1-yl)-N-((3-((morpholine-4-sulfonamido)methyl)-5-nitro-3,4-dihydro-2H-benzo[b] [1,4]oxazin-7-yl)sulfonyl)benzamide]		1320

Now from value to compound, other results behind:

IC50 (RS4;11 cells) [nM]	Compound	IC50 (DOHH2 cells) [nM]
36	COC(=O)N1CCC(C[C@@H]2COc3cc(S(=O)(=O)NC(=O)c4ccc(N5CCN(CC6=C(c7ccc(Cl)cc7)CC(C)(C)CC6)CC5)cc4Oc4cnc5[nH]ccc5c4)cc([N+](=O)[O-])c3N2)CC1 [Example 2-202, methyl (R)-4-((7-(N-(2-((1H-pyrrolo[2,3-b]pyridin-5-yl)oxy)-4-(4-((4′-chloro-5,5-dimethyl-3,4,5,6-tetrahydro-[1,1′-biphenyl]-2-yl)methyl)piperazin-1-yl)benzoyl)sulfamoyl)-5-nitro-3,4-dihydro-2H-benzo[b][1,4]oxazin-3-yl)methyl)piperidine-1-carboxylate]	63
4	COC(=O)N1CCC(C[C@H]2COc3cc(S(=O)(=O)NC(=O)c4ccc(N5CCN(CC6=C(c7ccc(Cl)cc7)CC(C)(C)CC6)CC5)cc4Oc4cnc5[nH]ccc5c4)cc([N+](=O)[O-])c3N2)CC1 [Example 2-195, methyl (S)-4-((7-(N-(2-((1H-pyrrolo[2,3-b]pyridin-5-yl)oxy)-4-(4-((4′-chloro-5,5-dimethyl-3,4,5,6-tetrahydro-[1,1′-biphenyl]-2-yl)methyl)piperazin-1-yl)benzoyl)sulfamoyl)-5-nitro-3,4-dihydro-2H-benzo[b][1,4]oxazin-3-yl)methyl)piperidine-1-carboxylate]	138
3	CC1(C)CCC(CN2CCN(c3ccc(C(=O)NS(=O)(=O)c4cc5c(c([N+](=O)[O-])c4)N[C@@H](C4CCC(C)(O)CC4)CO5)c(Oc4cnc5[nH]ccc5c4)c3)CC2)=C(c2ccc(Cl)cc2)C1 (stereo partly drawn) [Example 2-215, (S)-2-((1H-pyrrolo[2,3-b]pyridin-5-yl)oxy)-4-(4-((4′-chloro-5,5-dimethyl-3,4,5,6-tetra-hydro-[1,1′-biphenyl]-2-yl)methyl)piperazin-1-yl)-N-((3-(4-hydroxy-4-methylcyclohex-yl)-5-nitro-3,4-dihydro-2H-benzo[b][1,4]oxazin-7-yl)sulfonyl)benzamide]	65
33	CC1(C)CCC(CN2CCN(c3ccc(C(=O)NS(=O)(=O)c4cc5c(c([N+](=O)[O-])c4)N[C@@H](c4ccc(S(C)(=O)=O)cc4)CO5)c(Oc4cnc5[nH]ccc5c4)c3)CC2)=C(c2ccc(Cl)cc2)C1 [Example 2-168, (S)-2-((1H-pyrrolo[2,3-b]pyridin-5-yl)oxy)-4-(4-((4′-chloro-5,5-dimethyl-3,4,5,6-tetra-hydro-[1,1′-biphenyl]-2-yl)methyl)piperazin-1-yl)-N-((3-(4-(methylsulfonyl)phenyl)-5-nitro-3,4-dihydro-2H-benzo[b][1,4]oxazin-7-yl)sulfonyl)benzamide]	32
8	CC1(C)CCC(CN2CCN(c3ccc(C(=O)NS(=O)(=O)c4cc5c(c([N+](=O)[O-])c4)N[C@@H](CN4CCN(C(=O)C6CC6)CC4)CO5)c(Oc4cnc5[nH]ccc5c4)c3)CC2)=C(c2ccc(Cl)cc2)C1 [Example 2-99, (S)-2-((1H-pyrrolo[2,3-b]pyridin-5-yl)oxy)-4-(4-((4′-chloro-5,5-dimethyl-3,4,5,6-tetra-hydro-[1,1′-biphenyl]-2-yl)methyl)piperazin-1-yl)-N-((3-((4-(cyclopropanecarbonyl)piperazin-1-yl)methyl)-5-nitro-3,4-dihydro-2H-benzo[b][1,4]oxazin-7-yl)sulfonyl)benza-mide]	20
